The text below walks through data of ChEMBL document CHEMBL4610086, “N-Acylethanolamine Acid Amidase (NAAA): Structure, Function, and Inhibition” (J Med Chem, 2020).

Series [1] in a line: Blood brain barrier permeability in human. It is filed as ADME. The conditions noted are these: read-out: BPR.
The target of series [2] is T1, N-acylethanolamine-hydrolyzing acid amidase (Homo sapiens, UniProt Q02083).
T1 sequence (Q02083 whole entry): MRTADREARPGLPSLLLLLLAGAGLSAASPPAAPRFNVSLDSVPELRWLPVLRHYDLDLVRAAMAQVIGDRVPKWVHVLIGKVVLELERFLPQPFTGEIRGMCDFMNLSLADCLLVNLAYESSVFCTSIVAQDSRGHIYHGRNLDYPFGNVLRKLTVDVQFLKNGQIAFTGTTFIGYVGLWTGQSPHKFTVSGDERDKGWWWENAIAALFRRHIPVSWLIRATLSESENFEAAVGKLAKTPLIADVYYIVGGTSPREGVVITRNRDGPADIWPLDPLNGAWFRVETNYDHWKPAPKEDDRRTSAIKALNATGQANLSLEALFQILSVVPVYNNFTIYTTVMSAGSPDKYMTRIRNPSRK
The series can be described thus: Inhibition of human NAAA expressed in HEK293 cell membranes using [3H]-N-palmitoylethanolamine as substrate after 30 mins by liquid scintillation counting assay.

The target of series [3] is T1, N-acylethanolamine-hydrolyzing acid amidase. In words: Inhibition of NAAA (unknown origin).
For series [4] the target is unchanged. The series can be described thus: Inhibition of human NAAA.

Turning to `CCS(=O)(=O)c1ccccc1C(=O)N1CCN(c2nc3ccc(F)cc3s2)C[C@@H]1C`, the Kp in series [1] is 0.2.

As a reminder, the IC50 is the concentration at which inhibition is half-maximal. A higher IC50 goes with lower potency. Consider `CCCCCCCCCCCCCCCC(=O)OC1CCCC1` [CYCLOPENTYL PALMITATE], for which, in series [2], the IC50 is more than 30 µM.

In series [3], `O=C(CCc1ccc(-c2ccccc2)cc1)N1CCCC1` returned an IC50 of 3.1 µM.

`CCCCc1ccc(O[C@@H]2C[C@H]3CC[C@@H](C2)N3CS(=O)(=O)c2c(C)n[nH]c2C)cc1` showed an IC50 in series [4] of 0.023 µM.
